Results taken from ChEMBL document CHEMBL1649524, “Resistance selection studies comparing the activity of razupenem (PTZ601) to vancomycin and linezolid against eight methicillin-resistant and two methicillin-susceptible Staphylococcus aureus strains” (2009).
Converted amounts (≈) assume the structure as drawn.

Tests used:
Assay type in all cases: functional
[1] = test system: Staphylococcus aureus; test: Antimicrobial activity against methicillin-susceptible Staphylococcus aureus 540 measured on day 25 by macrodilution method; conditions: Staphylococcus aureus, 540, 600 h
[2] = test system: Staphylococcus aureus; test: Antimicrobial activity against methicillin-susceptible Staphylococcus aureus 543 after 15 passages by macrodilution method
[3] = test system: Staphylococcus aureus; test: Antimicrobial activity against vancomycin-resistant Staphylococcus aureus 510 measured on day 25 by macrodilution method; conditions: Staphylococcus aureus, 510, 600 h
[4] = test system: Staphylococcus aureus; test: Antimicrobial activity against methicillin-susceptible Staphylococcus aureus 543 measured after 10 antibiotic-free subculturing by macrodilution method
[5] = test system: Staphylococcus aureus; test: Antimicrobial activity against vancomycin-intermediate Staphylococcus aureus 1287 measured on day 40 by macrodilution method
[6] = test system: Staphylococcus aureus; test: Antimicrobial activity against vancomycin-intermediate Staphylococcus aureus 1287 measured on day 25 by macrodilution method; conditions: Staphylococcus aureus, 1287, 600 h
[7] = test system: Staphylococcus aureus; test: Antimicrobial activity against heterogeneous vancomycin-intermediate Staphylococcus aureus 873 measured on day 40 by macrodilution method
[8] = test system: Staphylococcus aureus; test: Antimicrobial activity against heterogeneous vancomycin-intermediate Staphylococcus aureus 168 after 50 passages by macrodilution method
[9] = test system: Staphylococcus aureus; test: Antimicrobial activity against methicillin-resistant Staphylococcus aureus 525 after 50 passages by macrodilution method
[10] = test system: Staphylococcus aureus; test: Antimicrobial activity against heterogeneous vancomycin-intermediate Staphylococcus aureus 168 measured on day 15 by macrodilution method; conditions: Staphylococcus aureus, 168, 360 h
[11] = test system: Staphylococcus aureus; test: Antimicrobial activity against vancomycin-resistant Staphylococcus aureus 509 measured after 10 antibiotic-free subculturing by macrodilution method
[12] = test system: Staphylococcus aureus; test: Antimicrobial activity against vancomycin-resistant Staphylococcus aureus 509 measured on day 25 by macrodilution method; conditions: Staphylococcus aureus, 509, 600 h
[13] = test system: Staphylococcus aureus; test: Antimicrobial activity against methicillin-resistant Staphylococcus aureus 547 measured on day 40 by macrodilution method
[14] = test system: Staphylococcus aureus; test: Antimicrobial activity against heterogeneous vancomycin-intermediate Staphylococcus aureus 168 measured on day 20 by macrodilution method; conditions: Staphylococcus aureus, 168, 480 h
[15] = test system: Staphylococcus aureus; test: Antimicrobial activity against methicillin-resistant Staphylococcus aureus 525 measured on day 25 by macrodilution method; conditions: Staphylococcus aureus, 525, 600 h
[16] = test system: Staphylococcus aureus; test: Antimicrobial activity against methicillin-resistant Staphylococcus aureus 547 measured on day 20 by macrodilution method; conditions: Staphylococcus aureus, 547, 480 h
[17] = test system: Staphylococcus aureus; test: Antimicrobial activity against vancomycin-intermediate Staphylococcus aureus 1287 after 50 passages by macrodilution method
[18] = test system: Staphylococcus aureus; test: Antimicrobial activity against heterogeneous vancomycin-intermediate Staphylococcus aureus 873 measured on day 30 by macrodilution method
[19] = test system: Staphylococcus aureus; test: Antimicrobial activity against methicillin-susceptible Staphylococcus aureus 540 measured on day 15 by macrodilution method; conditions: Staphylococcus aureus, 540, 360 h
[20] = test system: Staphylococcus aureus; test: Antimicrobial activity against heterogeneous vancomycin-intermediate Staphylococcus aureus 168 measured on day 50 by macrodilution method
[21] = test system: Staphylococcus aureus; test: Antimicrobial activity against vancomycin-intermediate Staphylococcus aureus 1287 measured after 10 antibiotic-free subculturing by macrodilution method
[22] = test system: Staphylococcus aureus; test: Antimicrobial activity against methicillin-resistant Staphylococcus aureus 547 measured on day 15 by macrodilution method; conditions: Staphylococcus aureus, 547, 360 h
[23] = test system: Staphylococcus aureus; test: Antimicrobial activity against methicillin-resistant Staphylococcus aureus 547 measured on day 25 by macrodilution method; conditions: Staphylococcus aureus, 547, 600 h
[24] = test system: Staphylococcus aureus; test: Antimicrobial activity against methicillin-resistant Staphylococcus aureus 547 measured on day 45 by macrodilution method
[25] = test system: Staphylococcus aureus; test: Antimicrobial activity against vancomycin-intermediate Staphylococcus aureus 1287 measured on day 30 by macrodilution method
[26] = test system: Staphylococcus aureus; test: Antimicrobial activity against heterogeneous vancomycin-intermediate Staphylococcus aureus 873 measured on day 35 by macrodilution method
[27] = test system: Staphylococcus aureus; test: Antimicrobial activity against vancomycin-resistant Staphylococcus aureus 509 measured on day 20 by macrodilution method; conditions: Staphylococcus aureus, 509, 480 h
[28] = test system: Staphylococcus aureus; test: Antimicrobial activity against methicillin-resistant Staphylococcus aureus 525 measured on day 15 by macrodilution method; conditions: Staphylococcus aureus, 525, 360 h
[29] = test system: Staphylococcus aureus; test: Antimicrobial activity against heterogeneous vancomycin-intermediate Staphylococcus aureus 873 measured on day 45 by macrodilution method
[30] = test system: Staphylococcus aureus; test: Antimicrobial activity against methicillin-resistant Staphylococcus aureus 525 measured on day 45 by macrodilution method
[31] = test system: Staphylococcus aureus; test: Antimicrobial activity against heterogeneous vancomycin-intermediate Staphylococcus aureus 873 after 50 passages by macrodilution method
[32] = test system: Staphylococcus aureus; test: Antimicrobial activity against vancomycin-intermediate Staphylococcus aureus 1287 measured on day 5 by macrodilution method; conditions: Staphylococcus aureus, 1287, 120 h
[33] = test system: Staphylococcus aureus; test: Antimicrobial activity against vancomycin-resistant Staphylococcus aureus 510 measured on day 50 by macrodilution method
[34] = test system: Staphylococcus aureus; test: Antimicrobial activity against methicillin-resistant Staphylococcus aureus 525 measured on day 50 by macrodilution method
[35] = test system: Staphylococcus aureus; test: Antimicrobial activity against methicillin-susceptible Staphylococcus aureus 543 measured on day 10 by macrodilution method; conditions: Staphylococcus aureus, 543, 240 h
[36] = test system: Staphylococcus aureus; test: Antimicrobial activity against vancomycin-resistant Staphylococcus aureus 509 after 28 passages by macrodilution method
[37] = test system: Staphylococcus aureus; test: Antimicrobial activity against methicillin-susceptible Staphylococcus aureus 540 measured on day 35 by macrodilution method
[38] = test system: Staphylococcus aureus; test: Antimicrobial activity against methicillin-resistant Staphylococcus aureus 547 measured on day 30 by macrodilution method
[39] = test system: Staphylococcus aureus; test: Antimicrobial activity against vancomycin-resistant Staphylococcus aureus 510 measured on day 20 by macrodilution method; conditions: Staphylococcus aureus, 510, 480 h
[40] = test system: Staphylococcus aureus; test: Antimicrobial activity against methicillin-resistant Staphylococcus aureus 547 measured on day 35 by macrodilution method
[41] = test system: Staphylococcus aureus; test: Antimicrobial activity against methicillin-susceptible Staphylococcus aureus 540 measured on day 20 by macrodilution method; conditions: Staphylococcus aureus, 540, 480 h
[42] = test system: Staphylococcus aureus; test: Antimicrobial activity against vancomycin-intermediate Staphylococcus aureus 1287 measured on day 35 by macrodilution method
[43] = test system: Staphylococcus aureus; test: Antimicrobial activity against vancomycin-resistant Staphylococcus aureus 509 measured on day 40 by macrodilution method
[44] = test system: Staphylococcus aureus; test: Antimicrobial activity against methicillin-resistant Staphylococcus aureus 525 measured on day 40 by macrodilution method
[45] = test system: Staphylococcus aureus; test: Antimicrobial activity against methicillin-resistant Staphylococcus aureus 525 measured on day 35 by macrodilution method
[46] = test system: Staphylococcus aureus; test: Antimicrobial activity against vancomycin-intermediate Staphylococcus aureus 1287 measured on day 10 by macrodilution method; conditions: Staphylococcus aureus, 1287, 240 h
[47] = test system: Staphylococcus aureus; test: Antimicrobial activity against heterogeneous vancomycin-intermediate Staphylococcus aureus 168 measured on day 45 by macrodilution method
[48] = test system: Staphylococcus aureus; test: Antimicrobial activity against heterogeneous vancomycin-intermediate Staphylococcus aureus 168 measured on day 10 by macrodilution method; conditions: Staphylococcus aureus, 168, 240 h
[49] = test system: Staphylococcus aureus; test: Antimicrobial activity against vancomycin-intermediate Staphylococcus aureus 1287 measured on day 15 by macrodilution method; conditions: Staphylococcus aureus, 1287, 360 h
[50] = test system: Staphylococcus aureus; test: Antimicrobial activity against vancomycin-resistant Staphylococcus aureus 510 measured on day 35 by macrodilution method
[51] = test system: Staphylococcus aureus; test: Antimicrobial activity against methicillin-resistant Staphylococcus aureus 525 measured on day 20 by macrodilution method; conditions: Staphylococcus aureus, 525, 480 h
[52] = test system: Staphylococcus aureus; test: Antimicrobial activity against heterogeneous vancomycin-intermediate Staphylococcus aureus 168 measured on day 35 by macrodilution method
[53] = test system: Staphylococcus aureus; test: Antimicrobial activity against heterogeneous vancomycin-intermediate Staphylococcus aureus 168 measured on day 25 by macrodilution method; conditions: Staphylococcus aureus, 168, 600 h
[54] = test system: Staphylococcus aureus; test: Antimicrobial activity against methicillin-resistant Staphylococcus aureus 547 after 48 passages by macrodilution method
[55] = test system: Staphylococcus aureus; test: Antimicrobial activity against heterogeneous vancomycin-intermediate Staphylococcus aureus 873 measured on day 50 by macrodilution method
[56] = test system: Staphylococcus aureus; test: Antimicrobial activity against methicillin-susceptible Staphylococcus aureus 543 measured on day 15 by macrodilution method; conditions: Staphylococcus aureus, 543, 360 h
[57] = test system: Staphylococcus aureus; test: Antimicrobial activity against vancomycin-resistant Staphylococcus aureus 510 measured on day 30 by macrodilution method
[58] = test system: Staphylococcus aureus; test: Antimicrobial activity against vancomycin-intermediate Staphylococcus aureus 1287 measured on day 45 by macrodilution method
[59] = test system: Staphylococcus aureus; test: Antimicrobial activity against vancomycin-resistant Staphylococcus aureus 510 after 50 passages by macrodilution method
[60] = test system: Staphylococcus aureus; test: Antimicrobial activity against vancomycin-intermediate Staphylococcus aureus 1287 measured on day 50 by macrodilution method
[61] = test system: Staphylococcus aureus; test: Antimicrobial activity against methicillin-susceptible Staphylococcus aureus 540 measured on day 30 by macrodilution method
[62] = test system: Staphylococcus aureus; test: Antimicrobial activity against heterogeneous vancomycin-intermediate Staphylococcus aureus 168 measured on day 40 by macrodilution method
[63] = test system: Staphylococcus aureus; test: Antimicrobial activity against vancomycin-intermediate Staphylococcus aureus 1287 measured on day 20 by macrodilution method; conditions: Staphylococcus aureus, 1287, 480 h

## CC(=O)NC[C@H]1CN(c2ccc(N3CCOCC3)c(F)c2)C(=O)O1 [LINEZOLID]
[1]
  MIC: 16 µg/mL (≈ 47.4 µM)
[2]
  MIC: 32 µg/mL (≈ 94.9 µM)
[3]
  MIC: 8 µg/mL (≈ 23.7 µM)
[4]
  MIC: 32 µg/mL (≈ 94.9 µM)
[5]
  MIC: 16 µg/mL (≈ 47.4 µM)
[6]
  MIC: 8 µg/mL (≈ 23.7 µM)
[7]
  MIC: 8 µg/mL (≈ 23.7 µM)
[8]
  MIC: 16 µg/mL (≈ 47.4 µM)
[9]
  MIC: 16 µg/mL (≈ 47.4 µM)
[10]
  MIC: 8 µg/mL (≈ 23.7 µM)
[11]
  MIC: 32 µg/mL (≈ 94.9 µM)
[12]
  MIC: 16 µg/mL (≈ 47.4 µM)
[13]
  MIC: 16 µg/mL (≈ 47.4 µM)
[14]
  MIC: 8 µg/mL (≈ 23.7 µM)
[15]
  MIC: 16 µg/mL (≈ 47.4 µM)
[16]
  MIC: 8 µg/mL (≈ 23.7 µM)
[17]
  MIC: 16 µg/mL (≈ 47.4 µM)
[18]
  MIC: 16 µg/mL (≈ 47.4 µM)
[19]
  MIC: 16 µg/mL (≈ 47.4 µM)
[20]
  MIC: 16 µg/mL (≈ 47.4 µM)
[21]
  MIC: 8 µg/mL (≈ 23.7 µM)
[22]
  MIC: 8 µg/mL (≈ 23.7 µM)
[23]
  MIC: 16 µg/mL (≈ 47.4 µM)
[24]
  MIC: 32 µg/mL (≈ 94.9 µM)
[25]
  MIC: 16 µg/mL (≈ 47.4 µM)
[26]
  MIC: 8 µg/mL (≈ 23.7 µM)
[27]
  MIC: 8 µg/mL (≈ 23.7 µM)
[28]
  MIC: 16 µg/mL (≈ 47.4 µM)
[29]
  MIC: 8 µg/mL (≈ 23.7 µM)
[30]
  MIC: 16 µg/mL (≈ 47.4 µM)
[31]
  MIC: 8 µg/mL (≈ 23.7 µM)
[32]
  MIC: 8 µg/mL (≈ 23.7 µM)
[33]
  MIC: 16 µg/mL (≈ 47.4 µM)
[34]
  MIC: 16 µg/mL (≈ 47.4 µM)
[35]
  MIC: 8 µg/mL (≈ 23.7 µM)
[36]
  MIC: 16 µg/mL (≈ 47.4 µM)
[37]
  MIC: 32 µg/mL (≈ 94.9 µM)
[38]
  MIC: 16 µg/mL (≈ 47.4 µM)
[39]
  MIC: 8 µg/mL (≈ 23.7 µM)
[40]
  MIC: 16 µg/mL (≈ 47.4 µM)
[41]
  MIC: 16 µg/mL (≈ 47.4 µM)
[42]
  MIC: 16 µg/mL (≈ 47.4 µM)
[43]
  MIC: 8 µg/mL (≈ 23.7 µM)
[44]
  MIC: 16 µg/mL (≈ 47.4 µM)
[45]
  MIC: 16 µg/mL (≈ 47.4 µM)
[46]
  MIC: 8 µg/mL (≈ 23.7 µM)
[47]
  MIC: 8 µg/mL (≈ 23.7 µM)
[48]
  MIC: 8 µg/mL (≈ 23.7 µM)
[49]
  MIC: 8 µg/mL (≈ 23.7 µM)
[50]
  MIC: 8 µg/mL (≈ 23.7 µM)
[51]
  MIC: 16 µg/mL (≈ 47.4 µM)
[52]
  MIC: 8 µg/mL (≈ 23.7 µM)
[53]
  MIC: 8 µg/mL (≈ 23.7 µM)
[54]
  MIC: 32 µg/mL (≈ 94.9 µM)
[55]
  MIC: 8 µg/mL (≈ 23.7 µM)
[56]
  MIC: 32 µg/mL (≈ 94.9 µM)
[57]
  MIC: 8 µg/mL (≈ 23.7 µM)
[58]
  MIC: 16 µg/mL (≈ 47.4 µM)
[59]
  MIC: 16 µg/mL (≈ 47.4 µM)
[60]
  MIC: 16 µg/mL (≈ 47.4 µM)
[61]
  MIC: 16 µg/mL (≈ 47.4 µM)
[62]
  MIC: 8 µg/mL (≈ 23.7 µM)
[63]
  MIC: 8 µg/mL (≈ 23.7 µM)
